Data on one sequence can be found in patent US20250197864A1, “LNCRNA TRANSCRIPTS IN MELANOMAGENESIS” (The Regents of the University of California, priority 2021, published 2025).

The test system of data set [1] is hepatocellular carcinoma cell line HepG2. Nature of the data set: Cell viability assay (ATP quantitation). The class given is cell-based. The settings on record: 50 nM, 120 hrs, Lipofectamine3000 2 ul/ml, vs non-targeting control ASO. How it is done:
(§1) EsiRNA, siRNA and ASO GapmeRs were transfected in a final concentration of 50 nM unless mentioned otherwise and the transfection reagent Lipofectamine 3000 (2 ul/ml) was added according to the manufacturer's instructions.
(§2) Dependent on cell doubling time, 0.7-2×10^^3 cells were seeded in 96 well plates. 1 day after seeding cells were incubated in media with oligonucleotide concentration and/or MEKi and transfection reagent. 3 (synergy experiments) or 5 (solely ASO) days after transfection Total luminescence was measured on the SynergyHT plate reader (BioTek) using Gen5 software.
(§3) Cell viability was compared to treatment with non-targeting control ASO-treatment. Lipofectamine3000 concentration was 2 ul/ml.

The test system of data set [2] is sarcoma cell line SK-LMS-1. The experiment in a line: Cell viability assay (ATP quantitation). Type of data set: cell-based. The settings on record: SK-LMS-1 sarcoma; 50 nM, 120 hrs; Lipofectamine3000 2 ul/ml; vs non-targeting control ASO. How it is done:
as §1, §2, §3

Take “GACTGGAGATAATTAA (gapmer, pattern not given here) [SEQ ID NO: 15, GapmeR ASO targeting AC004540.4 (TRASH), exon region of both isoforms; used for in vitro experiments]”: the cell viability decrease result in data set [1] and in data set [2] was “significant cell viability decrease” throughout.
